Key:
Format in all cases: cell-based
[1] = biological target: T1, EGFR T790M/L858R (NCI-H1975 cells) (Homo sapiens, UniProt P00533, L858R/T790M); test: EGFR (L858R) degradation analysis, Total EGFR (L858R) HTRF, NCI-H1975 cells; conditions: 6 hours
T1 construct: NCI-H1975 (harboring EGFR heterozygous T790M/L858R mutations); host or cells: NCI-H1975
Outline: (§1)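 Cells (10000/well NCI-H1975 and NCI-H1975+CS, 1000/well NCI-H3255) treated with 11-point half-log titrations from 10 μM top, in duplicate, for 6 hours at 37° C., 5% CO2. Total EGFR (L858R) quantified by HTRF FRET; untreated cells as negative and cell-free wells as positive control.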

[2] = biological target: T2, EGFR T790M/L858R/C797S (NCI-H1975+CS cells) (Homo sapiens, UniProt P00533, C797S/L858R/T790M); test: EGFR (L858R) degradation analysis, Total EGFR (L858R) HTRF, NCI-H1975+CS cells; conditions: 6 hours, read-out: H1975 C797S clone EGFR DC50
T2 construct: NCI-H1975+CS (harboring EGFR heterozygous T/790M/L858R/C797S mutations) was generated using CRISPR technology; host or cells: NCI-H1975+CS (CRISPR-edited NCI-H1975)
Text: NCI-H1975 (harboring EGFR heterozygous T790M/L858R mutations) and NCI-H3255 (harboring EGFR heterozygous L858R mutation) were purchased from ATCC and NCI, respectively. NCI-H1975+CS (harboring EGFR heterozygous T/790M/L858R/C797S mutations) was generated using CRISPR technology to introduce the additional C797S mutation by Horizon Discovery. RPMI 1640 no-phenol red medium and fetal bovine serum (FBS) were purchased from Gibco (Grand Island, NY, USA). Cell culture flasks and 384-well microplates were acquired from VWR (Radnor, PA, USA). Total EGFR (L858R) HTRF assay kits were purchased from Cisbio (Bedford, MA, USA).
Degradation of EGFR protein containing L858R mutation was determined based on quantification of FRET signal using Total EGFR (L858R) HTRF assay kit. Test compounds were added to the 384-well plate from a top concentration of 10 μM with 11 points, half log titration in duplicates. NCI-H1975, NCI-H1975+CS or NCI-H3255 cells were added into 384-well plates at a cell density of 10000, 10000 or 1000 cells per well, respectively. The plates were kept at 37° C. with 5% CO2 for 6 hours. Cells treated in the absence of the test compound were the negative control. Positive control was set by wells containing all reagents but no cells. FRET signal was acquired on EnVision™ Multilabel Reader (PerkinElmer, Santa Clara, CA, USA).

[3] = biological target: T3, EGFR L858R (NCI-H3255 cells) (Homo sapiens, UniProt P00533, L858R); test: EGFR (L858R) degradation analysis, Total EGFR (L858R) HTRF, NCI-H3255 cells; conditions: 6 hours
T3 construct: NCI-H3255 (harboring EGFR heterozygous L858R mutation); host or cells: NCI-H3255
Outline: as §1

T1 sequence (P00533 25-1210 T790M/L858R): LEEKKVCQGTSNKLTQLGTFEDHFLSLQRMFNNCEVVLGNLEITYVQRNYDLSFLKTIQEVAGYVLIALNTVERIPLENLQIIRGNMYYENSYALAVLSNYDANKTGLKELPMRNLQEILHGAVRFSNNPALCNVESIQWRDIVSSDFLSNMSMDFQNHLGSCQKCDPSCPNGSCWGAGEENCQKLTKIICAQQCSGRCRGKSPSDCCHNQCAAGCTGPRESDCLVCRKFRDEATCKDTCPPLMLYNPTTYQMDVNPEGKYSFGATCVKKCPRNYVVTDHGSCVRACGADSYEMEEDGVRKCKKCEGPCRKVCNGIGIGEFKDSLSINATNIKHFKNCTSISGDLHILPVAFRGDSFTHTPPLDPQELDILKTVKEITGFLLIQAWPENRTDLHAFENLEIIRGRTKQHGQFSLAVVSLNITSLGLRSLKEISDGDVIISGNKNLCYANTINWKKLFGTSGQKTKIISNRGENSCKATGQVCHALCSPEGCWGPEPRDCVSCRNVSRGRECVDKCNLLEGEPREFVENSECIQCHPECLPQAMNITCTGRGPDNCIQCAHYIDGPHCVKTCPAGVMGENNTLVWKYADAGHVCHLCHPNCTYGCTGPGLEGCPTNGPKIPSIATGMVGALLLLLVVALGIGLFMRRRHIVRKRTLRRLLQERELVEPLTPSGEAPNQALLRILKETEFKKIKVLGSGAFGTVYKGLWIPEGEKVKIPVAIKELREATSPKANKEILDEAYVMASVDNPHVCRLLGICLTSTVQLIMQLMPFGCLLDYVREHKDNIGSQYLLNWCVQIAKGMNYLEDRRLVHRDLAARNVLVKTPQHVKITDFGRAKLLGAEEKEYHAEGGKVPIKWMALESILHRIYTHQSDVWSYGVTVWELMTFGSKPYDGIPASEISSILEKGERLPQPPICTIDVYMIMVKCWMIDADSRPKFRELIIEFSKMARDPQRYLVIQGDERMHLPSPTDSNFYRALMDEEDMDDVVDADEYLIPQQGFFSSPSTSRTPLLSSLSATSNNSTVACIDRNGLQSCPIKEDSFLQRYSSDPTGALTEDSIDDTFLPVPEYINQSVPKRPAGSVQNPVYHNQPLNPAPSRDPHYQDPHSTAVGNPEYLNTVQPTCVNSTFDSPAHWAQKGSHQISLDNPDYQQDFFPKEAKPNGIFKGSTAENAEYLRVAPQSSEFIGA
T2 sequence (P00533 25-1210 T790M/C797S/L858R): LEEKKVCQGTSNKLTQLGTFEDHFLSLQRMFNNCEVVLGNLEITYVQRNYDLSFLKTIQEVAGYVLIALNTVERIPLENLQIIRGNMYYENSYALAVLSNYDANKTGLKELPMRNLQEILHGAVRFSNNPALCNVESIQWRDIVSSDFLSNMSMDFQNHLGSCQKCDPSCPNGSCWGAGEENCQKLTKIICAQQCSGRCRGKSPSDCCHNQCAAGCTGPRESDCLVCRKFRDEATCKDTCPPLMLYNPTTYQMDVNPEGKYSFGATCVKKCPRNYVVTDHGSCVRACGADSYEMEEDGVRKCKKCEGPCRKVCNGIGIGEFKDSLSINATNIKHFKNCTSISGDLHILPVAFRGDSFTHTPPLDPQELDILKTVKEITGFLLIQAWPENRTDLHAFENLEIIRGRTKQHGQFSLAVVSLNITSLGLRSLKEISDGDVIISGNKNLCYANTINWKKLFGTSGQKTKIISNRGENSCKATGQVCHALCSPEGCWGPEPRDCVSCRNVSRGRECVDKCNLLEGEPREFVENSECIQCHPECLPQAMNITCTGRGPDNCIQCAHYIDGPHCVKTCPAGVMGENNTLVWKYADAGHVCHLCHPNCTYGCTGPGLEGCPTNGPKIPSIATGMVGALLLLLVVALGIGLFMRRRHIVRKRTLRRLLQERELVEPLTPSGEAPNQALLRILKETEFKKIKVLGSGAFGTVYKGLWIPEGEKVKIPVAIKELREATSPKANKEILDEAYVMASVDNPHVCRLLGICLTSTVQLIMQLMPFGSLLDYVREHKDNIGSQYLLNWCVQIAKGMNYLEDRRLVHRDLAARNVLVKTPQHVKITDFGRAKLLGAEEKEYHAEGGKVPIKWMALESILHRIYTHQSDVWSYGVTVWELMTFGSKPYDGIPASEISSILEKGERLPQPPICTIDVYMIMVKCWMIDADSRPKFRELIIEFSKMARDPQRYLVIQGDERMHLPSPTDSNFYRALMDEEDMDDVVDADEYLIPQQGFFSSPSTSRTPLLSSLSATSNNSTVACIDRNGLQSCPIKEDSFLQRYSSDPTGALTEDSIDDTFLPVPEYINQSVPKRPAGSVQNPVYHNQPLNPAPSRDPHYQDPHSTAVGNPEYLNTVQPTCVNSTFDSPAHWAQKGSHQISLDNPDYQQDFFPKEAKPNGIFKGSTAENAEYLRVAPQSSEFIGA
T3 sequence (P00533 25-1210 L858R): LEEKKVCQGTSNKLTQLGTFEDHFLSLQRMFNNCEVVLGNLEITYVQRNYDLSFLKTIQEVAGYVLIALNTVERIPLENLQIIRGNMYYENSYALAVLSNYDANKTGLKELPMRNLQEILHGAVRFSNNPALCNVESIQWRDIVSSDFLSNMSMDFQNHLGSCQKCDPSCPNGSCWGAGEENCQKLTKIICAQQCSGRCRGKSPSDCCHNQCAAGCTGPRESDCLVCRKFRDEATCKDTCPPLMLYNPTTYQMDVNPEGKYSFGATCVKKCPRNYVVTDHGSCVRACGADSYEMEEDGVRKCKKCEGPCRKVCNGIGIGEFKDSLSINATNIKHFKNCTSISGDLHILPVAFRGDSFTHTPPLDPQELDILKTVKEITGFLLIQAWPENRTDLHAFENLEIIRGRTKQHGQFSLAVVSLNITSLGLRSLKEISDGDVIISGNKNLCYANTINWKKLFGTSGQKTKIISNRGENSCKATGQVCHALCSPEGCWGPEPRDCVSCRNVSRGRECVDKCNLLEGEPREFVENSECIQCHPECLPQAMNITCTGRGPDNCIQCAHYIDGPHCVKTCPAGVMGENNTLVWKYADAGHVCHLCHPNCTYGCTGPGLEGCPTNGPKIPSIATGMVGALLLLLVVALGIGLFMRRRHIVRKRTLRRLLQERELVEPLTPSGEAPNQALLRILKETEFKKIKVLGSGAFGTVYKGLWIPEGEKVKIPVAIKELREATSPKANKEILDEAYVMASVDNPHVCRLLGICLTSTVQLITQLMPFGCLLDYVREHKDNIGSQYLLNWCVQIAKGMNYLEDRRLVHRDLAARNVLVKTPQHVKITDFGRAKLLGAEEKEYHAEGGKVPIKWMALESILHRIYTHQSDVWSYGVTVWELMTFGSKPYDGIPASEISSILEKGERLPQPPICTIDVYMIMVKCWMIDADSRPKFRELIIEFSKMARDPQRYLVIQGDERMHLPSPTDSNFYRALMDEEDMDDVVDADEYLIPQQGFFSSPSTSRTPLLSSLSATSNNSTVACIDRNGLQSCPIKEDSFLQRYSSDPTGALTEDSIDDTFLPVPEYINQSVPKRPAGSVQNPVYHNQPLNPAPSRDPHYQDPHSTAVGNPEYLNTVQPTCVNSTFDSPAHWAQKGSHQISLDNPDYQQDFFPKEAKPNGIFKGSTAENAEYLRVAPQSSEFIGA

For `O=C1CCC(Nc2ccc(C3CCN(CC(=O)N4CCN(c5ccc(-c6cc(F)c7c(c6)C(=O)N(C(C(=O)Nc6nccs6)c6ncn8c6C[C@@H](F)C8)C7)cc5)CC4)CC3)cc2)C(=O)N1` (mixture of isomers) [Compound 43, (2RS)-2-[6-[4-[4-[2-[4-[4-[[(3RS)-2,6-Dioxo-3-piperidyl]amino]phenyl]-1-piperidyl]acetyl]piperazin-1-yl]phenyl]-4-fluoro-1-oxo-isoindolin-2-yl]-2-[(6R)-6-fluoro-6,7-dihydro-5H-pyrrolo[1,2-c]imidazol-1-yl]-N-thiazol-2-yl-acetamide], the DC50 [1] was 13 nM, the DC50 [2] was 18 nM and the DC50 [3] was 6 nM.

With `O=C1CCC(Nc2ccc(C3CCN(CC(=O)N4CCC(NC(=O)c5ccc(C#Cc6cc(F)c7c(c6)C(=O)N(C(C(=O)Nc6nccs6)c6ncn8c6CCC8)C7)cn5)CC4)CC3)cc2)C(=O)N1` (racemic) [Compound 1, 5-[2-[7-Fluoro-3-oxo-2-[(1RS)-1-(6,7-dihydro-5H-pyrrolo[1,2-c]imidazol-1-yl)-2-oxo-2-(thiazol-2-ylamino)ethyl]isoindolin-5-yl]ethynyl]-N-[1-[2-[4-[4-[[(3RS)-2,6-dioxo-3-piperidyl]amino]phenyl]-1-piperidyl]acetyl]-4-piperidyl]pyridine-2-carboxamide] the DC50 [1] was 6 nM, the DC50 [2] was 17 nM and the DC50 [3] was 8 nM.

`O=C1CCC(Nc2ccc(C3CCN(CC(=O)N4CCN(c5ccc(-c6cc(F)c7c(c6)C(=O)N(C(C(=O)Nc6nccs6)c6ncn8c6CCC8)C7)cc5)CC4)CC3)cc2)C(=O)N1` (stereo not shown) [Compound 5, 2-(6,7-dihydro-5H-pyrrolo[1,2-c]imidazol-1-yl)-2-[6-[4-[4-[2-[4-[4-[(2,6-dioxo-3-piperidyl)amino]phenyl]-1-piperidyl]acetyl]piperazin-1-yl]phenyl]-4-fluoro-1-oxo-isoindolin-2-yl]-N-thiazol-2-yl-acetamide] was tested, and the DC50 [1] was 20 nM, the DC50 [2] was 17 nM and the DC50 [3] was 6 nM.

Molecule `O=C1CC[C@H](Nc2ccc(C3CCN(CC(=O)N4CCN(c5ccc(-c6cc(F)c7c(c6)C(=O)N(C(C(=O)Nc6nccs6)c6ncn8c6CCC8)C7)cc5)CC4)CC3)cc2)C(=O)N1` (stereo partly drawn) [Compound 6, 2-(6,7-dihydro-5H-pyrrolo[1,2-c]imidazol-1-yl)-2-[6-[4-[4-[2-[4-[4-[[(3S)-2,6-dioxo-3-piperidyl]amino]phenyl]-1-piperidyl]acetyl]piperazin-1-yl]phenyl]-4-fluoro-1-oxo-isoindolin-2-yl]-N-thiazol-2-yl-acetamide] has a DC50 [1] of 22 nM, a DC50 [2] of 8 nM and a DC50 [3] of 7 nM.

Work on `O=C1CCC(Nc2ccc(C3CCN(CC(=O)N4CCN(c5ccc(-c6cc(F)c7c(c6)C(=O)N(C(C(=O)Nc6nccs6)c6ncn8c6CCC8)C7)cc5)CC4)CC3)c(C(F)F)c2)C(=O)N1` (stereo not shown) [Compound 15, 2-[6-[4-[4-[2-[4-[2-(difluoromethyl)-4-[(2,6-dioxo-3-piperidyl)amino]phenyl]-1-piperidyl]acetyl]piperazin-1-yl]phenyl]-4-fluoro-1-oxo-isoindolin-2-yl]-2-(6,7-dihydro-5H-pyrrolo[1,2-c]imidazol-1-yl)-N-thiazol-2-yl-acetamide] yielded a DC50 [1] of 34 nM, a DC50 [2] of 10 nM and a DC50 [3] of 6 nM.

`Cn1nc(N2CCC(=O)NC2=O)c2ccc(C3CCN(CC(=O)N4CCN(c5ccc(-c6cc(F)c7c(c6)C(=O)N(C(C(=O)Nc6nccs6)c6ncn8c6CCC8)C7)cc5)CC4)CC3)cc21` (stereo not shown) [Compound 17, 2-(6,7-dihydro-5H-pyrrolo[1,2-c]imidazol-1-yl)-2-(6-(4-(4-(2-(4-(3-(2,4-dioxotetrahydropyrimidin-1(2H)-yl)-1-methyl-1H-indazol-6-yl)piperidin-1-yl)acetyl)piperazin-1-yl)phenyl)-4-fluoro-1-oxoisoindolin-2-yl)-N-(thiazol-2-yl)acetamide] showed a DC50 [1] of 29 nM, a DC50 [2] of 22 nM and a DC50 [3] of 6 nM.

`O=C1CCC(Nc2ccc(C3CCN(CC(=O)N4CCN(c5ccc(-c6cc(F)c7c(c6)C(=O)N(C(C(=O)Nc6ccccn6)c6ncn8c6CCC8)C7)cc5)CC4)CC3)cc2)C(=O)N1` (stereo not shown) [Compound 19, 2-(6,7-dihydro-5H-pyrrolo[1,2-c]imidazol-1-yl)-2-(6-(4-(4-(2-(4-(4-((2,6-dioxopiperidin-3-yl)amino)phenyl)piperidin-1-yl)acetyl)piperazin-1-yl)phenyl)-4-fluoro-1-oxoisoindolin-2-yl)-N-(pyridin-2-yl)acetamide] gave a DC50 [1] of 50 nM, a DC50 [2] of 20 nM and a DC50 [3] of 13 nM.

`O=C1CCC(Nc2ccc(C3CCN(CC(=O)N4CCN(c5ccc(-c6cc(F)c7c(c6)C(=O)N(C(C(=O)Nc6ccccn6)c6ncn8c6CCC8)C7)cc5)CC4)CC3)c(F)c2)C(=O)N1` (stereo not shown) [Compound 20, 2-(6,7-dihydro-5H-pyrrolo[1,2-c]imidazol-1-yl)-2-[6-[4-[4-[2-[4-[4-[(2,6-dioxo-3-piperidyl)amino]-2-fluoro-phenyl]-1-piperidyl]acetyl]piperazin-1-yl]phenyl]-4-fluoro-1-oxo-isoindolin-2-yl]-N-(2-pyridyl)acetamide] was tested, and the DC50 [1] was 59 nM, the DC50 [2] was 34 nM and the DC50 [3] was 25 nM.

Molecule `O=C1CCC(Nc2ccc(C3CCN(CC(=O)N4CCN(Cc5ccc(-c6cc(F)c7c(c6)C(=O)N(C(C(=O)Nc6nccs6)c6ncn8c6CCC8)C7)cc5)CC4)CC3)cc2)C(=O)N1` (stereo not shown) [Compound 56, 2-(6,7-dihydro-5H-pyrrolo[1,2-c]imidazol-1-yl)-2-[6-[4-[[4-[2-[4-[4-[(2,6-dioxo-3-piperidyl)amino]phenyl]-1-piperidyl]acetyl]piperazin-1-yl]methyl]phenyl]-4-fluoro-1-oxo-isoindolin-2-yl]-N-thiazol-2-yl-acetamide] has a DC50 [1] of 20 nM and a DC50 [3] of 14 nM.

With `O=C1CC[C@H](Nc2ccc(C3CCN(CC(=O)N4CCC(Cc5ccc(-c6cc(F)c7c(c6)C(=O)N(C(C(=O)Nc6nccs6)c6ncn8c6CCC8)C7)cc5)CC4)CC3)c(F)c2)C(=O)N1` (stereo partly drawn) [Compound 60, 2-(6,7-dihydro-5H-pyrrolo[1,2-c]imidazol-1-yl)-2-[6-[4-[[1-[2-[4-[4-[[(3S)-2,6-dioxo-3-piperidyl]amino]-2-fluoro-phenyl]-1-piperidyl]acetyl]-4-piperidyl]methyl]phenyl]-4-fluoro-1-oxo-isoindolin-2-yl]-N-thiazol-2-yl-acetamide] the DC50 [1] was 52 nM and the DC50 [3] was 28 nM.

Work on `O=C1CCC(Nc2ccc(C3CCN(CC(=O)N4CCN(c5ccc(-c6cc(F)c7cn(C(C(=O)Nc8nccs8)c8ncn9c8CCC9)nc7c6)cn5)CC4)CC3)nc2)C(=O)N1` (stereo not shown) [Compound 66, 2-(6,7-dihydro-5H-pyrrolo[1,2-c]imidazol-1-yl)-2-[6-[6-[4-[2-[4-[5-[(2,6-dioxo-3-piperidyl)amino]-2-pyridyl]-1-piperidyl]acetyl]piperazin-1-yl]-3-pyridyl]-4-fluoro-indazol-2-yl]-N-thiazol-2-yl-acetamide] yielded a DC50 [1] of 33 nM and a DC50 [3] of 31 nM.

Work on `Cn1nc(N2CCC(=O)NC2=O)c2ccc(C3CCN(CC(=O)N4CCN(c5ccc(-c6cc(F)c7cn(C(C(=O)Nc8nccs8)c8ncn9c8CCC9)nc7c6)cn5)CC4)CC3)cc21` (stereo not shown) [Compound 67, 2-(6,7-dihydro-5H-pyrrolo[1,2-c]imidazol-1-yl)-2-[6-[6-[4-[2-[4-[3-(2,4-dioxohexahydropyrimidin-1-yl)-1-methyl-indazol-6-yl]-1-piperidyl]acetyl]piperazin-1-yl]-3-pyridyl]-4-fluoro-indazol-2-yl]-N-thiazol-2-yl-acetamide] yielded a DC50 [1] of 27 nM and a DC50 [3] of 50 nM.

`O=C1CC[C@H](Nc2ccc(C3CCN(CC(=O)N4CCN(c5ccc(-c6cc(F)c7cn(C(C(=O)Nc8nccs8)c8ncn9c8CCC9)nc7c6)cn5)CC4)CC3)c(F)c2)C(=O)N1` (stereo partly drawn) [Compound 68, 2-(6,7-dihydro-5H-pyrrolo[1,2-c]imidazol-1-yl)-2-(6-(6-(4-(2-(4-(4-(((S)-2,6-dioxopiperidin-3-yl)amino)-2-fluorophenyl)piperidin-1-yl)acetyl)piperazin-1-yl)pyridin-3-yl)-4-fluoro-2H-indazol-2-yl)-N-(thiazol-2-yl)acetamide] gave a DC50 [1] of 28 nM and a DC50 [3] of 34 nM.
